“Also recorded” adds a separate entry of the source.
Tests used:
NT2 cells [1] = assay: Expression of neurofilament proteins NF70, NF145, NF200 by NT2 cells (immunoblot); assay type: cell-based, human; settings: 6 days
Description: Cells were fixed with newly prepared 3.7% formaldehyde for 15 minutes and blocked by blocking reagent (Zymed Laboratories, San Francisco, Calif., USA). Inuunostaining was performed using rabbit anti-NF200, anti-NF145 and anti-NF70 (all at 1:200), and goat anti-GFRα1, anti-GFRα2 and anti-GFRα3 (all at 1:100); Santa Cruz Biotechnology (Santa Cruz, Calif., USA). All antibodies were used at 200 μg/ml. After overnight incubation at 4° C., the immunoreactivity was detected using horseradish peroxidase-conjugated anti-rabbit or anti-mouse IgG for 1 hour at room temperature and visualized using AEC.
Cells were then washed with phosphate-buffered saline (PBS) and lysed with loading buffer. Proteins were resolved by sodium dodecyl sulfate polyacrylamide gel electrophoresis (SDS-PAGE) on 4-20% gradient acrylamide-bis-acrylamide gel at 125 V for 2 hours and electrotransferred onto nitrocellulose membranes. After blocking with 5% nonfat milk, the membranes were subjected to immunoblot analysis by incubation overnight with rabbit anti-NF200, anti-NF145 and anti-NF70 (all at 1:4000) (Chemicon International, Temecula, Calif., USA) and goat anti-GFRα1, anti-GFRα2 and anti-GFRα3 (all at 1:500) (200 μg/ml; Santa Cruz Biotechnology, Inc., Santa Cruz, Calif., USA), goat anti-rabbit or rabbit anti-goat IgG-horseradish peroxidase being used as the secondary antibody (1:5000) (Zymed Laboratories, San Francisco, Calif., USA). Protein bands were visualized using ECL reagents (Amersham Pharmacia Biotech, Piscataway, N.J., USA). Image-densitometric analyses of the immunoreactive protein bands were performed using OptiQuant-image analysis software (Packard BioScience, Meriden, Conn., USA). Glyceraldehyde-3-phosphate dehydrogenase (GAPPH) served as an internal standard.

Aβ = target: T1, Aβ (Homo sapiens, UniProt P05067); assay: CPBBA displacement of radiolabeled 22R-hydroxycholesterol from Aβ (Example II); assay type: binding; settings: 100 μM unlabeled compound; 50 μM Aβ
T1 construct: Aβ1-42 peptide was purchased from American Peptide Co; purchased American Peptide Co. (Sunnyvale, Calif.)
T1 sequence (P05067 672-713): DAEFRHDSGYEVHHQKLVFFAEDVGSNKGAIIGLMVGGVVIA
Description: At the end of the incubation time, samples were separated by 1.5% agarose (Type I-B) gel electrophoresis under native conditions and transferred to nitrocellulose membrane (Schleicher&Schuell, Keene, N.H.) in 10×SSC buffer. The membrane was exposed to tritium-sensitive screen and analyzed by phosphoimaging using the Cyclone Storage phosphor system (Packard BioScience). Image-densitometric analysis was performed using the OptiQuant software (Packard BioScience). […] Low molecular weight unincorporated 22R-hydroxycholesterol and derivatives are separated and eliminated during electrophoresis.

NT2 cells [2] = assay: NT2 cell differentiation, phase-contrast morphology; assay type: cell-based, human; settings: 25 μM; 3, 6 and 12 days (comparators 6 days)
NT2 cells [3] = assay: LDH and MTT assays, NT2 cell viability
PC12 cells = assay: Membrane potential (CytoLite luminescence) in Aβ-treated PC12 cells; assay type: cell-based, rat
Description: PC12 cells (rat pheochromocytoma neurons) from ATCC (Manassas, Va.) were cultured at 37° C. and 5% CO2 in RPMI 1640 medium devoid of glutamine and supplemented with 10% fetal bovine serum and 5% horse serum. Yao Z, Drieu K and Papadopoulos V., The Gingko biloba extract EGb 761 rescues PC12 neuronal cells from β-amyloid-induced cell death by inhibiting the formation of (3-amyloid-derived diffusible neurotoxic ligands, Brain Res, 889, 181-190 (2001). Cells were seeded in 96-well plates (8×10^4 cells/well). After an overnight period of incubation, increasing concentrations of aggregated Aβ (0.1, 1 and 10 μM) were added to the cells in the presence or absence of the indicated concentrations of the SP compounds to be tested. After 72-hours incubation time various parameters, markers of cell viability, were determined. Mouse MA-10 tumor Leydig cells were maintained at 37° C. in DMEM/Ham's F12 (Biofluids, Rockville, Md.) medium supplemented with 5% heat-inactivated fetal calf serum and 2.5% horse serum in 5% CO2. Cells were plated on 96-well plates at the density of 2.5×10^4 cells/well for overnight. The cells were stimulated with the indicated concentrations of the various SP compounds in 0.2 ml/well serum-free medium for 2 hours. The culture medium was collected and tested for progesterone production by radioimmunoassay.
Cells viability was also assessed using the luminescence-based kit CytoLite™ (Packard BioScience Co.) according to the recommendations of the manufacturer. Briefly, cells were cultured and treated in 96-well plates and after 72-hours incubation time, 25 μl of Activator solution was added to the cells followed by 150 μl of Amplifier solution. Luminescence was measured on a TopCount NXT™ counter (Packard BioSciences Co.) following a 5 minute precount delay.

rat PC12 neuronal cells = assay: MTT assay, Aβ1-42-induced cytotoxicity in PC12 cells (Example I)
[4] = CPBBA with NT2 cell protein; assay type: binding, human; settings: 3 hours at 37° C.; competition with unlabeled compound
Description: After incubation, samples were separated by 1.0% agarose (Type I-B) gel electrophoresis and transferred to a nitrocellulose membrane (Schleicher & SchueII, Keene, N.H., USA) in 10×saline-sodium citrate (SSC) buffer. The membrane was exposed to a tritium-sensitive screen and analyzed by phosphoimaging using the Cyclone Storage Phosphor System (Packard BioScience, Meridien, Conn., USA). Image-densitometric analyses were performed using the OptiQuant software (Packard). […] Low molecular weight unincorporated 22R-hydroxycholesterol is separated and eliminated during electrophoresis.

With `CC(C)CC[C@@H](O)[C@@H](C)[C@H]1CC[C@H]2[C@@H]3CC=C4C[C@@H](O)CC[C@]4(C)[C@H]3CC[C@]12C` [SP222, 22R-hydroxycholesterol] the NF70 protein level (NT2 cells [1]; 1 μM) was 83 % of the control level, the NF145 expression (NT2 cells [1]; 5 μM) was “increase that was apparent at 5 μM” and the NF200 protein expression (NT2 cells [1]; 5 μM) was 210 % of the control value. For the same molecule, the NF145 expression (NT2 cells [1]; 25 μM) was 56 % of control levels, the NF200 protein expression (NT2 cells [1]; 25 μM) was 180 % of the control value and the NF70 protein level (NT2 cells [1]; 50 μM) was 18 % of the control level. The “displacement of radiolabeled 22R-hydroxycholesterol binding to Aβ” value (Aβ) was 80%, the “effect on NT2 cell morphology (differentiation)” value (NT2 cells [2]) was “induced morphologic changes” and the “cytotoxicity at high concentrations” value (NT2 cells [3]; LDH and MTT, 25-50 μM, 3-day treatment) was “cytotoxic”. The “concentration affecting viability of undifferentiated NT2 cells” value (NT2 cells [3]; MTT) was over 10 µM, the “protection against 0.1 μM Aβ, membrane potential luminescence” value (PC12 cells; 0.1 μM Aβ) was “protected” and the “protection against the two highest concentrations of Aβ, membrane potential luminescence” value (PC12 cells; 1.0 and 10.0 μM Aβ) was “failed to do so”. The “rescue from 25 μM Aβ-induced cytotoxicity” value (rat PC12 neuronal cells; MTT, 25 μM Aβ1-42) was “rescue all the cells; also recorded: full protection”, the “cells rescued in the presence of 50 μM Aβ” value (rat PC12 neuronal cells; MTT, 50 μM Aβ1-42) was 50% and the “PC12 cell viability, steroid alone” value (rat PC12 neuronal cells; MTT, absence of Aβ) was “did not affect PC12 cell viability”. For the same molecule, the IC50 (rat PC12 neuronal cells; Rattus norvegicus, PC-12, read-out: IC50 of protection from Aβ-induced toxicity) was 10 µM, the “protection by pretreatment followed by treatment with Aβ” value (rat PC12 neuronal cells; pretreatment of PC12 cells, data not shown) was “failed to offer any protection” and the “protection against Aβ oligomer-induced toxicity” value (rat PC12 neuronal cells; soluble Aβ (oligomers), not shown) was “protected”. The “radiolabeling of NT2 cell protein with 3H-22R-hydroxycholesterol” value [4] was “decreased in the presence of increasing concentrations of unlabeled 22R-hydroxycholesterol”.

Source: patent publication US20060009433A1, “Neuroprotective spirostenol pharmaceutical compositions” (priority 2003, published 2006)
